{"source": "patent US9512315B2", "about": "“Quenching dye for labeling biomolecules and method for preparing the same” (DKC CORPORATION, priority 2013, dated 2016)", "format_in_all_cases": "physicochemical", "key": {"[1]": {"assay": "Test Example 1: comparison of absorption spectra", "details": "for negative absorption: FIG. 1, range of 750-800 nm", "protocol": "(§1) LC/MS was measured by ESI (electrospray ionization) using the LC/MSD SL of Agilent Technologies. The absorption spectrum and maximum absorption wavelength (λabs) of the synthesized dye were measured with Lambda 45 of PerkinElmer. The emission spectrum and maximum emission wavelength (λfl) were measured with LS-55 of PerkinElmer.\n(§2) In order to investigate the absorption intensity and spectrum of the anthraquinone compound according to the present disclosure, the absorption spectra of the compounds of Example 1 and Example 6 and commercially available BHQ-3 as a comparative example were compared. Stock solutions were prepared by dissolving the compounds of Example 1 and Example 6 according to the present disclosure in distilled water. BHQ-3 was dissolved in a small amount of DMSO according to the manufacturer's instructions and diluted with distilled water."}, "[2]": {"assay": "Maximum absorption wavelength (λabs) of the synthesized dye in PBS", "protocol": "as §1"}, "[3]": {"assay": "Solubility in water (stock solution preparation)", "protocol": "as §2"}}, "note": "Where “and” joins values, the source holds several entries; their conditions need not be identical. Equal entries are not always repeated."}
{"smiles": "CN(CCCCCCCC(=O)ON1C(=O)CCC1=O)c1ccc(/N=N/c2ccc(Nc3cc(S(=O)(=O)O)c(N)c4c3C(=O)c3ccccc3C4=O)c(S(=O)(=O)O)c2)cc1", "note": "[Example 6]", "values": [{"measurement": "negative absorption", "setting": "[1]", "value": "did not show negative absorption"}]}
{"smiles": "CN(CCCCCC(=O)O)c1ccc(/N=N/c2ccc(Nc3cc(S(=O)(=O)O)c(N)c4c3C(=O)c3ccccc3C4=O)c(S(=O)(=O)O)c2)cc1", "note": "[Example 1]", "values": [{"measurement": "λabs (maximum absorption wavelength)", "setting": "[2]", "value": "481 nm and 626 nm"}, {"measurement": "negative absorption", "setting": "[1]", "value": "did not show negative absorption"}]}
{"smiles": "C=CS(=O)(=O)CCNC(=O)CCCCCN(C)c1ccc(/N=N/c2ccc(Nc3cc(S(=O)(=O)O)c(N)c4c3C(=O)c3ccccc3C4=O)c(S(=O)(=O)O)c2)cc1", "note": "[Example 3]", "values": [{"measurement": "λabs (maximum absorption wavelength)", "setting": "[2]", "value": "481 nm and 626 nm"}]}
{"smiles": "CN(CCCCCCCC(=O)O)c1ccc(/N=N/c2ccc(Nc3cc(S(=O)(=O)O)c(N)c4c3C(=O)c3ccccc3C4=O)c(S(=O)(=O)O)c2)cc1", "note": "[Example 5]", "values": [{"measurement": "λabs (maximum absorption wavelength)", "setting": "[2]", "value": "472 nm and 624 nm"}]}
{"smiles": "CCN(CC)c1ccc2nc3ccc(/N=N/c4ccc(N(C)CCCC(=O)O)cc4)cc3[n+](-c3ccccc3)c2c1", "note": "[BHQ-3, reference compound]", "values": [{"measurement": "negative absorption", "setting": "[1]", "value": "negative (−) absorption"}, {"measurement": "range of absorption spectra, normalized to the maximum absorption intensity", "setting": "[1]; FIG. 2", "value": "300-750 nm"}, {"measurement": "solubility in water", "setting": "[3]", "value": "not dissolved in water"}]}
{"smiles": "C=CS(=O)(=O)CCNC(=O)CCCCCCCN(C)c1ccc(/N=N/c2ccc(Nc3cc(S(=O)(=O)O)c(N)c4c3C(=O)c3ccccc3C4=O)c(S(=O)(=O)O)c2)cc1", "note": "[Example 7]", "values": [{"measurement": "λabs (maximum absorption wavelength)", "setting": "[2]", "value": "472 nm and 624 nm"}]}
